Our source for the TGI values is PubChem BioAssay (NCI).

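Following 48 hours of exposure in 96-well plates, responses at five concentrations were used to interpolate endpoints linearly. TGI: total growth inhibition.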 Where only a bound is given, the exact number is not on record here.

Some test systems named below: MDA-MB-231 breast; K-562 leukemia; A498 renal; OVCAR-8 ovarian; MOLT-4 leukemia; NCI-H23 lung; RPMI-8226 leukemia; RXF 393 renal; UACC-62 melanoma; NCI-H522 lung; OVCAR-3 ovarian; U251 CNS; SK-MEL-2 melanoma; M14 melanoma; MDA-MB-435; HL-60(TB) leukemia; SR leukemia; SNB-75 CNS.
Holding throughout (test): NCI anticancer screen, dose series, 48 h

`Cc1ccc(/C=C2\CN(C)CC3C(c4ccc(C)cc4)=C(C#N)C(=O)NC23)cc1` (centres undefined): the TGI in the assay with MDA-MB-231 breast, with K-562 leukemia, in the assay with A498 renal, in the assay with OVCAR-8 ovarian, in the assay with MOLT-4 leukemia and with NCI-H23 lung was more than 50 µM throughout. The TGI in the assay with RPMI-8226 leukemia, in the assay on RXF 393 renal, in the assay with UACC-62 melanoma, with NCI-H522 lung, in the assay on OVCAR-3 ovarian and with U251 CNS was more than 50 µM each time. Besides, the TGI with SK-MEL-2 melanoma, in the assay with M14 melanoma and in the assay on MDA-MB-435 was more than 50 µM in each case.
As to `CC(C)C1CC=NN1C(=O)OC(C)(C)C` (centres undefined), the TGI with K-562 leukemia, in the assay on A498 renal, in the assay with OVCAR-8 ovarian, in the assay with HL-60(TB) leukemia, in the assay with MOLT-4 leukemia and with NCI-H23 lung was more than 100 µM throughout. The TGI in the assay on RPMI-8226 leukemia, in the assay with RXF 393 renal, with SR leukemia, in the assay on UACC-62 melanoma, in the assay with NCI-H522 lung and with OVCAR-3 ovarian was more than 100 µM throughout. Besides, the TGI in the assay on SNB-75 CNS, in the assay on M14 melanoma and in the assay on MDA-MB-435 was more than 100 µM each time.
Turning to `COc1cc(C2C(Cl)C(=O)N2n2cnc3ccccc3c2=O)cc(OC)c1OC` (centres undefined), the TGI with K-562 leukemia, in the assay on OVCAR-8 ovarian, in the assay on HL-60(TB) leukemia, in the assay with MOLT-4 leukemia, in the assay on NCI-H23 lung and with RPMI-8226 leukemia was more than 100 µM throughout. Also, the TGI in the assay with RXF 393 renal, in the assay with SR leukemia, with UACC-62 melanoma, in the assay on NCI-H522 lung, with OVCAR-3 ovarian and in the assay with U251 CNS was more than 100 µM throughout. Besides, the TGI with SNB-75 CNS, in the assay on SK-MEL-2 melanoma and with M14 melanoma was more than 100 µM throughout.
As to `Cc1c2c(c(C)n1-c1ccccc1)C(=O)N(CCSC(=N)N)C2=O`, the TGI with MDA-MB-231 breast, in the assay with K-562 leukemia, in the assay with A498 renal, in the assay on OVCAR-8 ovarian, in the assay on HL-60(TB) leukemia and in the assay with MOLT-4 leukemia was more than 100 µM throughout. For the same molecule, the TGI in the assay with NCI-H23 lung, with RPMI-8226 leukemia, with RXF 393 renal, with UACC-62 melanoma, with NCI-H522 lung and in the assay with OVCAR-3 ovarian was more than 100 µM throughout. Also, the TGI in the assay on U251 CNS, with SNB-75 CNS, in the assay on SK-MEL-2 melanoma, in the assay on M14 melanoma and in the assay with MDA-MB-435 was more than 100 µM in each case.
Consider `O=C1C=C(N2CCCC2)C=C(N2CCCC2)C1`, for which the TGI in the assay with K-562 leukemia, in the assay on OVCAR-8 ovarian, in the assay on HL-60(TB) leukemia, in the assay on MOLT-4 leukemia, in the assay on NCI-H23 lung and in the assay with RPMI-8226 leukemia was more than 100 µM in each case. Moreover, the TGI in the assay with RXF 393 renal, in the assay with SR leukemia, in the assay with UACC-62 melanoma, in the assay on NCI-H522 lung, in the assay on OVCAR-3 ovarian and with U251 CNS was more than 100 µM each time. For the same molecule, the TGI in the assay with SNB-75 CNS, in the assay on SK-MEL-2 melanoma and in the assay with M14 melanoma was more than 100 µM each time.
Take `CCCCOC(=O)C(=O)C(CC(C(=O)Cc1ccccc1)c1ccccc1)C(=O)C=C(C)C` (centres undefined): the TGI with MDA-MB-231 breast, in the assay with OVCAR-8 ovarian, in the assay on HL-60(TB) leukemia, in the assay on MOLT-4 leukemia, with NCI-H23 lung and in the assay on RXF 393 renal was more than 100 µM throughout. For the same molecule, the TGI with UACC-62 melanoma, with NCI-H522 lung, with OVCAR-3 ovarian, in the assay with U251 CNS, in the assay with SNB-75 CNS and with SK-MEL-2 melanoma was more than 100 µM in each case. For the same molecule, the TGI with M14 melanoma and in the assay with MDA-MB-435 was more than 100 µM throughout.
For `O=[N+]([O-])c1cccc(N=C2c3ccccc3CN2c2cccc([N+](=O)[O-])c2)c1`, the TGI in the assay on MDA-MB-231 breast, in the assay on K-562 leukemia, in the assay on A498 renal, with OVCAR-8 ovarian, in the assay on MOLT-4 leukemia and in the assay with NCI-H23 lung was more than 100 µM throughout. The TGI in the assay on RPMI-8226 leukemia, with RXF 393 renal, in the assay with UACC-62 melanoma, with NCI-H522 lung, with OVCAR-3 ovarian and in the assay with U251 CNS was more than 100 µM in each case. Also, the TGI in the assay on SNB-75 CNS was 73.5 µM; with SK-MEL-2 melanoma, more than 100 µM; in the assay on M14 melanoma it was more than 100 µM; with MDA-MB-435, more than 100 µM.
For the molecule `CC(=O)Oc1c(C)cc(-c2cc(C)c(OC(C)=O)c(C)c2)cc1C`, the TGI is more than 100 µM in the assay on K-562 leukemia; more than 100 µM with OVCAR-8 ovarian; more than 100 µM in the assay on HL-60(TB) leukemia; more than 100 µM in the assay on MOLT-4 leukemia; 42.8 µM in the assay with NCI-H23 lung; more than 100 µM in the assay with RPMI-8226 leukemia. In addition, the TGI with SR leukemia is more than 100 µM; in the assay with UACC-62 melanoma, more than 100 µM; in the assay with NCI-H522 lung it was 98.2 µM; with OVCAR-3 ovarian, more than 100 µM; in the assay with U251 CNS, 39.5 µM; in the assay with SNB-75 CNS, 60.9 µM. Besides, the TGI in the assay with SK-MEL-2 melanoma was more than 100 µM; in the assay with M14 melanoma, more than 100 µM; in the assay on MDA-MB-435, 10.8 µM.
For the molecule `CCOC(=O)c1c(O)[nH]c(=O)c(CC)c1C`, the TGI with MDA-MB-231 breast, with K-562 leukemia, in the assay on A498 renal, in the assay on OVCAR-8 ovarian, with HL-60(TB) leukemia and in the assay on MOLT-4 leukemia was more than 100 µM throughout. Besides, the TGI in the assay on NCI-H23 lung, in the assay with RPMI-8226 leukemia, with RXF 393 renal, with UACC-62 melanoma, in the assay on NCI-H522 lung and with OVCAR-3 ovarian was more than 100 µM in each case. Besides, the TGI in the assay on U251 CNS, with SNB-75 CNS, in the assay on SK-MEL-2 melanoma, in the assay on M14 melanoma and in the assay on MDA-MB-435 was more than 100 µM throughout.
As to `CC(=O)Oc1ccc(N2C(=O)C3c4[nH]c5ccccc5c4C4CCC(C(C)(C)C)CC4C3C2=O)cc1` (centres undefined), the TGI in the assay on MDA-MB-231 breast came out at 4.63 µM; with K-562 leukemia, 10.9 µM; in the assay on A498 renal it was 14.7 µM; with OVCAR-8 ovarian it was 13.5 µM; in the assay on HL-60(TB) leukemia, 5.47 µM; in the assay on MOLT-4 leukemia, 94.2 µM. Also, the TGI is 8.79 µM in the assay with NCI-H23 lung; more than 100 µM in the assay with RPMI-8226 leukemia; 5.64 µM with RXF 393 renal; 20.7 µM in the assay on UACC-62 melanoma; 9.93 µM in the assay on NCI-H522 lung; 7.07 µM with OVCAR-3 ovarian. The TGI in the assay with U251 CNS came to 11.1 µM; in the assay with SK-MEL-2 melanoma it was 17.8 µM; with M14 melanoma, 13.2 µM; in the assay with MDA-MB-435, 22.6 µM.
For the molecule `CNNC1=NS(=O)(=O)c2cc(C)c(Cl)cc2S1`, the TGI with MDA-MB-231 breast, in the assay with K-562 leukemia, with A498 renal, in the assay with OVCAR-8 ovarian, with HL-60(TB) leukemia and in the assay on MOLT-4 leukemia was more than 10 µM each time. The TGI with NCI-H23 lung, in the assay on RPMI-8226 leukemia, in the assay with RXF 393 renal, with UACC-62 melanoma, in the assay with NCI-H522 lung and in the assay with OVCAR-3 ovarian was more than 10 µM each time. Further, the TGI in the assay with U251 CNS, with SNB-75 CNS, with SK-MEL-2 melanoma, with M14 melanoma and in the assay with MDA-MB-435 was more than 10 µM throughout.
For `C[C@H](CCC1=NCCN1)[C@H]1CC[C@H]2[C@@H]3[C@H](O)C[C@@H]4C[C@H](O)CC[C@]4(C)[C@H]3CC[C@]12C`, the TGI was 33.5 µM in the assay on MDA-MB-231 breast; 21.6 µM in the assay on K-562 leukemia; 26.1 µM in the assay with A498 renal; 29 µM with OVCAR-8 ovarian; 27.3 µM in the assay with MOLT-4 leukemia; 27.3 µM with NCI-H23 lung. Besides, the TGI with RPMI-8226 leukemia turned out to be 35.3 µM; with RXF 393 renal it was 31.6 µM; in the assay with UACC-62 melanoma it was 23.5 µM; in the assay on NCI-H522 lung it was 28.5 µM; with OVCAR-3 ovarian it was 26.6 µM; with U251 CNS, 26.5 µM. Also, the TGI with SNB-75 CNS stood at 22.4 µM; in the assay on SK-MEL-2 melanoma it was 29.9 µM; with M14 melanoma it was 28.6 µM; with MDA-MB-435, 26.7 µM.
Turning to `CC[C@@H]1CN2CCC1C[C@@H]2C(O)c1ccnc2ccc(OCCN3CCN(CCOc4ccc5nccc(C(O)[C@@H]6C[C@@H]7CCN6C[C@@H]7CC)c5c4)CC3)cc12` (some centres undefined), the TGI amounted to 31.3 µM in the assay with MDA-MB-231 breast; 6.2 µM in the assay on K-562 leukemia; 37 µM with A498 renal; 42.6 µM in the assay with OVCAR-8 ovarian; 47.6 µM in the assay with HL-60(TB) leukemia; 21.7 µM in the assay with MOLT-4 leukemia. Also, the TGI with NCI-H23 lung was determined as 43.7 µM; with RPMI-8226 leukemia it was 8.45 µM; in the assay on RXF 393 renal, 34.2 µM; in the assay with UACC-62 melanoma it was 30.5 µM; with NCI-H522 lung it was 61.8 µM; with OVCAR-3 ovarian, 36 µM. In addition, the TGI in the assay on U251 CNS worked out at 33.1 µM; in the assay on SK-MEL-2 melanoma, 37.2 µM; in the assay on M14 melanoma, 26.2 µM; in the assay with MDA-MB-435, 28 µM.
